The text below walks through data of patent US20240116985A1, “STAPLED PEPTIDES AND METHODS THEREOF” (priority 2020, published 2024).

In assay [1] the target is T1, full-length beta-Catenin (Uniprot ID P35222) (Homo sapiens, UniProt P35222).
T1 construct: 10 nM full-length beta-Catenin (Uniprot ID P35222)
T1 sequence (P35222 1-781): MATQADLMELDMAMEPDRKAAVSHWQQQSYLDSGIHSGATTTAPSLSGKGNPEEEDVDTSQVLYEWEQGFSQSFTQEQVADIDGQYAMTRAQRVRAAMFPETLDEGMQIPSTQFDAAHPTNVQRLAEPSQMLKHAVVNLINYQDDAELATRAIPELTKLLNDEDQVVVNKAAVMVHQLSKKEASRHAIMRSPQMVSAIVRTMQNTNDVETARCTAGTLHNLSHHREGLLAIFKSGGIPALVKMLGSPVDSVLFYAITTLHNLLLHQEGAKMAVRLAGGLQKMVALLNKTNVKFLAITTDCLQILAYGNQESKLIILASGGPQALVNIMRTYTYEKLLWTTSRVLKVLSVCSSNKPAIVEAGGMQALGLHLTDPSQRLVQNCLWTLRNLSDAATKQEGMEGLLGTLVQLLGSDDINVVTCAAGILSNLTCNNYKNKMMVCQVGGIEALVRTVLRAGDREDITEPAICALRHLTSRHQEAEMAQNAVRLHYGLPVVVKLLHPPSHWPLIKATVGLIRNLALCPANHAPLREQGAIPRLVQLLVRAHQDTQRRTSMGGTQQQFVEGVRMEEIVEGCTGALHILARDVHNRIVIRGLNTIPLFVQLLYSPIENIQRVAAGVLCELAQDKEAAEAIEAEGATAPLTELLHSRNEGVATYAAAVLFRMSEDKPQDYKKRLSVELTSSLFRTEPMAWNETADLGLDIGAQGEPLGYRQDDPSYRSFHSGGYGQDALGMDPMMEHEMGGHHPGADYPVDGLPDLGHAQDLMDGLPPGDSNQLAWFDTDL
The assay is described as follows: Fluorescence polarization IC50 (beta-catenin / 5FAM-TCF4 10-53 competition). It is filed as binding. To be noted: fluorescence polarization; read-out: beta-Catenin FP IC50. A general note: Polarisation of emitted light reports the rotation of a fluorescent probe.

Assay [2] addresses T2, beta-catenin/TCF4 engagement (Homo sapiens, UniProt P35222).
T2 construct: expressed in transfected cells; host or cells: HEK293
T2 sequence (P35222 1-781): T1 sequence (P35222 1-781)
Description: Nano-BRET target engagement assay (B-cat-Halo & TCF4-Luc in HEK293 cells). It is filed as cell-based. To be noted: absolute IC50; read-out: NanoBRET Abs IC50. (Bioluminescence resonance energy transfer reports proximity on the nanometre scale.)

What is called IC50 is the concentration that gives 50% inhibition. On to `CC(=O)N1CCC[C@]12CC=CCCCC1(CCCC=CCCCOC(=O)N3CC[C@@](C(=O)N[C@@H](Cc4ccsc4)C(=O)N[C@@H](Cc4csc5ccccc45)C(=O)N[C@@H](CCC(N)=O)C(N)=O)(C3)NC(=O)[C@H](CC(C)C)NC(=O)[C@H](Cc3ccccc3)NC(=O)[C@H](C)NC(=O)[C@H](C)NC(=O)[C@H](CC(=O)O)NC(=O)[C@H](CC(=O)O)NC1=O)NC(=O)[C@H](CC(C)(C)C)NC(=O)[C@H](CC(N)=O)NC2=O` (stereo partly drawn) [I-1221, Ac-PL3-Asn-Npg-B5-Asp-Asp-Ala-Ala-Phe-Leu-PyrS2-3Thi-BztA-Gln-NH2], for which the half-maximal inhibitory concentration (IC50) stood at 14 nM in assay [1] and 23400 nM in assay [2].

Regarding `CC(=O)N1CCC[C@]12CC=CCCCC1(CCCC=CCCCOC(=O)N3CC[C@@](C(=O)N[C@@H](Cc4ccsc4)C(=O)N[C@@H](Cc4cccc5ccccc45)C(=O)N[C@@H](CCC(N)=O)C(N)=O)(C3)NC(=O)[C@H]([C@@H](C)O)NC(=O)[C@H](Cc3ccccc3)NC(=O)[C@H](C)NC(=O)[C@H](C)NC(=O)[C@H](CC(=O)O)NC(=O)[C@H](CC(=O)O)NC1=O)NC(=O)[C@H](CC(C)(C)C)NC(=O)[C@H](CC(=O)O)NC2=O` (stereo partly drawn) [I-1232, Ac-PL3-Asp-Npg-B5-Asp-Asp-Ala-Ala-Phe-Thr-PyrS2-3Thi-1NapA-Gln-NH2], the concentration for half-maximal inhibition (IC50) in assay [1] stood at 31 nM; in assay [2], 43300 nM.

For `CC(=O)N1CCC[C@]12CC=CCCCC1(CCCC=CCCCOC(=O)N3CC[C@@](C(=O)N[C@@H](Cc4ccsc4)C(=O)N[C@@H](Cc4ccc5ccccc5c4)C(=O)N[C@@H](CCC(N)=O)C(N)=O)(C3)NC(=O)[C@H]([C@@H](C)O)NC(=O)[C@H](Cc3ccccc3)NC(=O)[C@H](C)NC(=O)[C@H](C)NC(=O)[C@H](CC(=O)O)NC(=O)[C@H](CC(=O)O)NC1=O)NC(=O)[C@H](CC(C)(C)C)NC(=O)[C@H](CC(=O)O)NC2=O` (stereo partly drawn) [I-1233, Ac-PL3-Asp-Npg-B5-Asp-Asp-Ala-Ala-Phe-Thr-PyrS2-3Thi-2NapA-Gln-NH2], the figures for the IC50 in assay [1] and in assay [2] were 24 nM and 54500 nM, respectively.

Take `CC(=O)N1CCC[C@]12CC=CCCCC1(CCCC=CCCCOC(=O)N3CC[C@@](C(=O)N[C@@H](Cc4ccsc4)C(=O)N[C@@H](Cc4cccc5ccccc45)C(=O)N[C@@H](CCC(N)=O)C(N)=O)(C3)NC(=O)[C@H](CC(C)C)NC(=O)[C@H](Cc3ccccc3)NC(=O)[C@H](C)NC(=O)[C@H](C)NC(=O)[C@H](CC(=O)O)NC(=O)[C@H](CC(=O)O)NC1=O)NC(=O)[C@H](CC(C)(C)C)NC(=O)[C@H](CC(=O)O)NC2=O` (stereo partly drawn) [I-1234, Ac-PL3-Asp-Npg-B5-Asp-Asp-Ala-Ala-Phe-Leu-PyrS2-3Thi-1NapA-Gln-NH2]: the figures for the half-maximal inhibitory concentration (IC50) in assay [1] and in assay [2] were 41 nM and 23900 nM, respectively.

As to `CC(=O)N1CCC[C@]12CC=CCCCC1(CCCC=CCCCOC(=O)N3CC[C@@](C(=O)N[C@@H](Cc4ccsc4)C(=O)N[C@@H](Cc4ccc5ccccc5c4)C(=O)N[C@@H](CCC(N)=O)C(N)=O)(C3)NC(=O)[C@H](CC(C)C)NC(=O)[C@H](Cc3ccccc3)NC(=O)[C@H](C)NC(=O)[C@H](C)NC(=O)[C@H](CC(=O)O)NC(=O)[C@H](CC(=O)O)NC1=O)NC(=O)[C@H](CC(C)(C)C)NC(=O)[C@H](CC(=O)O)NC2=O` (stereo partly drawn) [I-1235, Ac-PL3-Asp-Npg-B5-Asp-Asp-Ala-Ala-Phe-Leu-PyrS2-3Thi-2NapA-Gln-NH2], the IC50 in assay [1] came to 27 nM; in assay [2], 24800 nM.

For `CC(=O)N1CCC[C@]12CC=CCCCC1(CCCC=CCCCOC(=O)N3CC[C@@](C(=O)N[C@@H](Cc4ccccc4Cl)C(=O)N[C@@H](Cc4cccc5ccccc45)C(=O)N[C@@H](CCC(N)=O)C(N)=O)(C3)NC(=O)[C@H](CC(C)C)NC(=O)[C@H](Cc3ccccc3)NC(=O)[C@H](C)NC(=O)[C@H](C)NC(=O)[C@H](CC(=O)O)NC(=O)[C@H](CC(=O)O)NC1=O)NC(=O)[C@H](CC(C)(C)C)NC(=O)[C@H](CC(=O)O)NC2=O` (stereo partly drawn) [I-1236, Ac-PL3-Asp-Npg-B5-Asp-Asp-Ala-Ala-Phe-Leu-PyrS2-2C1F-1NapA-Gln-NH2], the IC50 is 69 nM in assay [1] and 20900 nM in assay [2].

For the molecule `CC(=O)N1CCC[C@]12CC=CCCCC1(CCCC=CCCCOC(=O)N3CC[C@@](C(=O)N[C@@H](Cc4ccccc4Cl)C(=O)N[C@@H](Cc4ccc5ccccc5c4)C(=O)N[C@@H](CCC(N)=O)C(N)=O)(C3)NC(=O)[C@H](CC(C)C)NC(=O)[C@H](Cc3ccccc3)NC(=O)[C@H](C)NC(=O)[C@H](C)NC(=O)[C@H](CC(=O)O)NC(=O)[C@H](CC(=O)O)NC1=O)NC(=O)[C@H](CC(C)(C)C)NC(=O)[C@H](CC(=O)O)NC2=O` (stereo partly drawn) [I-1237, Ac-PL3-Asp-Npg-B5-Asp-Asp-Ala-Ala-Phe-Leu-PyrS2-2C1F-2NapA-Gln-NH2], the IC50 in assay [1] was determined as 31 nM; in assay [2] it was 39900 nM.

Consider `CC(=O)N1CCC[C@]12CC=CCCCC1(CCCC=CCCCOC(=O)N3CC[C@@](C(=O)N[C@@H](Cc4ccsc4)C(=O)N[C@@H](Cc4cccc5ccccc45)C(=O)N[C@@H](CO)C(N)=O)(C3)NC(=O)[C@H](CC(C)C)NC(=O)[C@H](Cc3ccccc3)NC(=O)[C@H](C)NC(=O)[C@H](C)NC(=O)[C@H](CC(=O)O)NC(=O)[C@H](CC(=O)O)NC1=O)NC(=O)[C@H](CC(C)(C)C)NC(=O)[C@H](CC(=O)O)NC2=O` (stereo partly drawn) [I-1238, Ac-PL3-Asp-Npg-B5-Asp-Asp-Ala-Ala-Phe-Leu-PyrS2-3Thi-1NapA-Ser-NH2], for which the IC50 came out at 44 nM in assay [1] and 23100 nM in assay [2].

Turning to `CC(=O)N1CCC[C@]12CC=CCCCC1(CCCC=CCCCOC(=O)N3CC[C@@](C(=O)N[C@@H](Cc4ccsc4)C(=O)N[C@@H](Cc4ccc5ccccc5c4)C(=O)N[C@@H](CO)C(N)=O)(C3)NC(=O)[C@H](CC(C)C)NC(=O)[C@H](Cc3ccccc3)NC(=O)[C@H](C)NC(=O)[C@H](C)NC(=O)[C@H](CC(=O)O)NC(=O)[C@H](CC(=O)O)NC1=O)NC(=O)[C@H](CC(C)(C)C)NC(=O)[C@H](CC(=O)O)NC2=O` (stereo partly drawn) [I-1239, Ac-PL3-Asp-Npg-B5-Asp-Asp-Ala-Ala-Phe-Leu-PyrS2-3Thi-2NapA-Ser-NH2], the IC50 was 33 nM in assay [1] and 31800 nM in assay [2].

As to `CCNC(=O)[C@H](CCC(N)=O)NC(=O)[C@H](Cc1csc2ccccc12)NC(=O)[C@H](Cc1ccccc1Cl)NC(=O)[C@]12CCN(C1)C(=O)OCCCC=CCCCC1(CCCC=CC[C@]3(CCCN3C(C)=O)C(=O)N[C@@H](CC(=O)O)C(=O)N[C@@H](CC(C)(C)C)C(=O)N1)C(=O)N[C@@H](CC(=O)O)C(=O)N[C@@H](CC(=O)O)C(=O)N[C@@H](C)C(=O)N[C@@H](C)C(=O)N[C@@H](Cc1ccccc1)C(=O)N[C@@H](CC(C)C)C(=O)N2` (stereo partly drawn) [I-1248, Ac-PL3-Asp-Npg-B5-Asp-Asp-Ala-Ala-Phe-Leu-PyrS2-2C1F-BztA-Gln-NHEt], the results for the half-inhibitory concentration (IC50) in assay [1] and in assay [2] were 19 nM and 29700 nM, respectively.

Regarding `CC(=O)N1CCC[C@]12CC=CCCCC1(CCCC=CCCCOC(=O)N3CC[C@@](C(=O)N[C@@H](Cc4ccccc4Cl)C(=O)N[C@@H](Cc4csc5ccccc45)C(=O)N[C@H](CO)[C@@H](C)O)(C3)NC(=O)[C@H](CC(C)C)NC(=O)[C@H](Cc3ccccc3)NC(=O)[C@H](C)NC(=O)[C@H](C)NC(=O)[C@H](CC(=O)O)NC(=O)[C@H](CC(=O)O)NC1=O)NC(=O)[C@H](CC(C)(C)C)NC(=O)[C@H](CC(=O)O)NC2=O` (stereo partly drawn) [I-1249, Ac-PL3-Asp-Npg-B5-Asp-Asp-Ala-Ala-Phe-Leu-PyrS2-2C1F-BztA-Thro1], the results for the IC50 in assay [1] and in assay [2] were 17 nM and 25200 nM, respectively.

Regarding `CC(=O)N1CCC[C@]12CC=CCCCC1(CCCC=CCCCOC(=O)N3CC[C@@](C(=O)N[C@@H](Cc4ccccc4Cl)C(=O)N[C@@H](Cc4csc5ccccc45)C(=O)N[C@@H](C)CO)(C3)NC(=O)[C@H](CC(C)C)NC(=O)[C@H](Cc3ccccc3)NC(=O)[C@H](C)NC(=O)[C@H](C)NC(=O)[C@H](CC(=O)O)NC(=O)[C@H](CC(=O)O)NC1=O)NC(=O)[C@H](CC(C)(C)C)NC(=O)[C@H](CC(=O)O)NC2=O` (stereo partly drawn) [I-1250, Ac-PL3-Asp-Npg-B5-Asp-Asp-Ala-Ala-Phe-Leu-PyrS2-2C1F-BztA-Alao1], the IC50 is 31 nM in assay [1] and > 20000 nM in assay [2].

In the case of `C[C@@H]1NC(=O)[C@H](C)NC(=O)[C@H](CC(=O)O)NC(=O)[C@H](CC(=O)O)NC(=O)C2(CCCC=CCCCOC(=O)N3CC[C@@](C(=O)N[C@@H](Cc4ccccc4Cl)C(=O)N[C@@H](Cc4csc5ccccc45)C(=O)N[C@@H](C(N)=O)[C@H](C)O)(C3)NC(=O)[C@H](CC(N)=O)NC(=O)[C@H](Cc3ccccc3)NC1=O)CCCC=CC[C@]1(CCCN1S(C)(=O)=O)C(=O)N[C@@H](CC(=O)O)C(=O)N[C@@H](CC(C)(C)C)C(=O)N2` (stereo partly drawn) [I-1258, MeSO2-PL3-Asp-Npg-B5-Asp-Asp-Ala-Ala-Phe-Asn-PyrS2-2C1F-BztA-dThr-NH2], the figures for the IC50 in assay [1] and in assay [2] were 17 nM and > 20000 nM, respectively.
